Reference: patent US20030120046A1, “Radioisotope-labeled complexes of glucose derivatives and kits for the preparation thereof” (priority 2000, published 2003)
Like-named read-outs stand apart in the source and are kept apart here.

Key:
[1] = Stability test of radiopharmaceuticals in the human plasma (purity by TLC); assay type: in vitro ADME; details: room temperature, mean of 3 experiments
Method: (§1) The stability of radiopharmaceuticals was expressed as the purity of radiopharmaceutical at a given time, and measured after 0, 2, 4 and 6 hrs in a physiological saline and the human plasma, respectively. […] After well stirring the ingredients in each vial, the stability was measured at given times at room temperature.
(§2) The stability was measured as follows. 5 μl of each radiopharmaceutical was deposited in the lower part of TLC and was developed using methyl ethyl ketone (or acetone) and 0.9% physiological saline, respectively. Upon completion of development, each TLC was equally divided into 2 parts and the radioactivity of each part was measured using gamma counter. The stability was calculated by measurement of the purity from the obtained radioactivity. […] The purity of radiopharmaceuticals is calculated as follows.
(§3) 100%−[(radioactivity in the upper part of TLC developed with acetone÷radioactivity in the whole TLC developed with acetone)+(radioactivity in the lower part of TLC developed with 0.9% physiological saline÷radioactivity in the whole TLC developed with 0.9% physiological saline)]×100%

[2] = Stability test of radiopharmaceuticals in a physiological saline (purity by TLC); assay type: physicochemical; details: room temperature, mean of 3 experiments
Method: as §1, §2, §3

VX-2 tumor cells = details: for Normal region counts / Tumor counts: 1.5 mCi i.v.
Method: Further, ^99mTc-labeled radiopharmaceuticals were tested for their stability in a physiological saline and the human plasma with the lapse of time (see Example 4). […] The radiopharmaceuticals of the present invention were tested for biodistribution and the uptake level in rabbits transplanted with VX-2 tumor cells and then, compared with ^99mTc-MIBI currently used for imaging tumor in nuclear medicine (see Example 5). More specifically, ^99mTc-labeled glucose derivatives were injected to rabbits transplanted with tumor cells to obtain image using gamma camera. Then, the organs were removed to measure biodistribution and the uptake level of radiopharmaceuticals by calculating % ID (injected dose)/g, indicative of the uptake level of the injected radiopharmaceuticals per weight of tissues.
VX-2 tumor cells were ground in 2 ml of a physiological saline and then, transplanted via intramuscular injection to the right thigh muscle of three rabbits (New Zealand White species) weighing 2.5 to 3 kg using a syringe. Then, the rabbits were bred for 3 weeks to grow tumor to have a diameter of 2 to 3 cm. […] After injection, the rabbits were laid down under gamma camera and the gamma camera was controlled to cover the whole body and images were obtained for 15 minutes at 1 and 3 hours after injection, respectively.
The image of ^99mTc-MIBI was obtained at 10 minutes after injection. […] It is conventional that the standardized imaging time cannot be applied for radiopharmaceuticals since their physical, chemical and physiological properties all are different. Thus, the optimal imaging time may be set depending upon the employed radiopharmaceutical.
After obtaining image of the regions of interest, the uptake level of radioactivity was calculated from counts (unit of radioactivity) obtained by a particular program equipped with a gamma camera.

tumor = details: background art, in words; cited from earlier work
[3] = anterior image, 10 minutes after injection (footnote)
[4] = posterior image, 10 minutes after injection (footnote)

Molecule	Purity of radiopharmaceuticals at given times ([1]; 0 h) [%]	Purity of radiopharmaceuticals at given times ([1]; 2 h) [%]	Purity of radiopharmaceuticals at given times ([1]; 4 h) [%]	Purity of radiopharmaceuticals at given times ([1]; 6 h) [%]	Purity of radiopharmaceuticals at given times ([2]; 0 h) [%]	Purity of radiopharmaceuticals at given times ([2]; 2 h) [%]	Purity of radiopharmaceuticals at given times ([2]; 4 h) [%]	Purity of radiopharmaceuticals at given times ([2]; 6 h) [%]	Tumor/Normal ratio (VX-2 tumor cells; [3])	Normal region counts (VX-2 tumor cells; [3]) [counts]	Tumor counts (VX-2 tumor cells; [3]) [counts]	Tumor uptake/normal region uptake ratio (VX-2 tumor cells; anterior image, 10 minutes after injection (footnote), Mean ± S.D. from 3 experiments)	wash-out in vivo (VX-2 tumor cells; image cannot be practically obtained at 30 minutes or more after injection, in words)	Tumor/Normal ratio (VX-2 tumor cells; [4])	Normal region counts (VX-2 tumor cells; [4]) [counts]	Tumor counts (VX-2 tumor cells; [4]) [counts]	uptake rate in the abdomen (tumor)	uptake rate in tumor (tumor)	wash-out rate in vivo (tumor)
^99mTc-glucosamine	99.5	95.4	95.0	92.4	99.5	98.9	98.0	97.6	–	–	–	–	–	–	–	–	–	–	–
[99Tc].[C-]#[N+]CC(C)(C)OC.[C-]#[N+]CC(C)(C)OC.[C-]#[N+]CC(C)(C)OC.[C-]#[N+]CC(C)(C)OC.[C-]#[N+]CC(C)(C)OC.[C-]#[N+]CC(C)(C)OC [^99mTc-MIBI, ^99mTc-MIBI (methoxy isobutyl isonitrile)]	–	–	–	–	–	–	–	–	1.7	5829	9931	2.22 ± 0.87	rapidly washed out	2.0	6566	13047	high	unsatisfactory	high
